In patent publication US7026135B2, “Biotin-peg-substrate for a lipase assay” (Amersham Biosciences UK Limited, priority 2000, dated 2006):

Assays:
Assay type in all cases: biochemical
[1] = molecular target: lipase; assay: lipase assay, 96-well SPA format, 'on bead'; details: YSi beads, 5 nM lipase, room temperature, 60 minutes, read-out: IC50 inhibition of lipase activity
Protocol: 96-well SPA format. Using an ‘on bead’ assay format, 180 nM lipase substrate (i.e. HSL substrate prepared by the method described in Example 1) was added to streptavidin coated yttrium silicate (YSi) beads (Amersham Pharmacia Biotech) at 5 mg/ml and 10% (v/v) Triton™ X-100 in the ratio of 1:3:2. Triton X-100 was added to prevent non-specific binding of the tritiated product to beads. Assays contained 20 μl substrate precoated SPA beads (6 nM lipase substrate, 50 μg beads, 0.67% (v/v) Triton X-100), 5 nM lipase and assay buffer (50 mM Hepes, pH 7.5, 1 mM dithioerythritol (DTE) and 0.001% (v/v) C13E12) in a volume of 100 μl. In ‘no enzyme’ controls, approximately 15000 SPA cpm were obtained. After incubation for 60 minutes at room temperature with agitation, assays were stopped by the addition of 100 μl 0.1M sodium citrate/citric acid, pH 4.0 and counted on a TopCount™ microplate scintillation counter (Packard Instruments Co., Meriden, Conn., USA).
Development of a lipase assay using a 96-well SPA assay format. Enzyme titrations were set up using ‘on’ and ‘off’ bead assay formats. In the ‘off’ bead format, the lipase substrate was not precoated onto SPA beads; instead the beads were added at the same time as the stop solution. […] It is thought that the binding of the substrate to the bead surface produced an artificial membrane environment necessary for optimal enzyme activity (FIG. 2). […]

[2] = molecular target: lipase; assay: lipase assay, 384-well SPA format (YSi SPA beads); details: 30 nM lipase, room temperature, 60 minutes, read-out: IC50 inhibition of lipase activity
Protocol: (§1) 384-well SPA and LEADseeker formats. 180 nM lipase substrate was added to streptavidin coated YSi beads at 10 mg/ml and 10% (v/v) Triton™ X-100 in the ratio of 2:3:1. Assays contained […] substrate precoated streptavidin YSi SPA beads or streptavidin yttrium oxide (YOx) LEADseeker beads (Amersham Pharmacia Biotech) (24 nM lipase substrate, 50 μg beads, 0.67% (v/v) Triton X-100), 30 nM lipase and assay buffer in a volume of 25 μl. In ‘no enzyme’ controls, approximately 6000 SPA cpm and 600 IOD's (Integrated Optical Density) were obtained. After incubation for 60 minutes at room temperature with agitation, assays were stopped by the addition of 25 μl 0.1M sodium citrate/citric acid, pH 4.0 and counted on either on a TopCount microplate scintillation counter (Packard Instruments Co., Meriden, Conn., USA) or imaged on LEADseeker (Amersham Pharmacia Biotech).
(§2) Miniaturization of the lipase assay to 384-well format using SPA and LEADseeker. Using a reduced assay volume an enzyme titration was performed with YSi SPA beads and YOx LEADseeker beads (FIG. 5). Different profiles were obtained using the two assay formats and this may be a result of how the substrate is presented on the surface of the two bead types.
(§3) 30 nM lipase was used and assays were incubated at room temperature for 60 minutes.

[3] = molecular target: lipase; assay: lipase assay, 384-well LEADseeker format (YOx LEADseeker beads); details: 30 nM lipase, room temperature, 60 minutes, read-out: IC50 inhibition of lipase activity
Protocol: as §1, §2, §3

IC50 [1]: 27.5 µM
IC50 [2]: 32.3 µM
IC50 [3]: 18.2 µM
SMILES: CC[C@@H](C)[C@@H](O)[C@H](C)C(=O)[C@H](C)/C=C(\C)C[C@H](C)[C@@H]1OC(=O)[C@H]1CC [Ebelactone B]
